From patent US20090030024A1, “THIAZOLES AS FUNGICIDES” (priority 2005, published 2009)
Marks after values point to notes of the source that are not given here.

experiment: logP determination by retention times (calibration with alkan-2-ones); conditions: not given

First: Cc1nc(C)c(-c2ccnc(Nc3ccc(F)c(C)c3)n2)s1 [Example 185, 4-(2,4-dimethyl-1,3-thiazol-5-yl)-N-(4-fluoro-3-methylphenyl)pyrimidine-2-amine]
Second: COc1ccc(Nc2nccc(-c3sc(C)nc3C)n2)cn1 [Example 187, 4-(2,4-dimethyl-1,3-thiazol-5-yl)-N-(6-methoxypyridin-3-yl)pyrimidine-2-amine]
The chromatographic logP of the first is higher: 3.07 for the first, 2.09 for the second.

Going from Cc1nc(N)sc1-c1ccnc(Nc2cccc([N+](=O)[O-])c2)n1 [Example 206, 4-(2-amino-4-methyl-1,3-thiazol-5-yl)-N-(3-nitrophenyl)pyrimidine-2-amine] to CSc1nc(C)c(-c2ccnc(Nc3cccc(C(C)=O)c3)n2)s1 [Example 28, 1-[3-({4-[4-methyl-2-(methylthio)-1,3-thiazol-5-yl]pyrimidin-2-yl}amino)phenyl]ethanone], the chromatographic logP rises from 1.5 to 2.99.

Going from Cc1nc2c(s1)-c1nc(Nc3cccc([N+](=O)[O-])c3)ncc1CC2 [Example 95, 2-Methyl-N-(3-nitrophenyl)-4,5-dihydro[1,3]thiazolo[4,5-h]quinazoline-8-amine] to Cc1nc(C)c(-c2ccnc(Nc3ccc4c(c3)OCCO4)n2)s1 [Example 387, N-(2,3-dihydro-1,4-benzodioxin-6-yl)-4-(2,4-dimethyl-1,3-thiazol-5-yl)pyrimidine-2-amine], the chromatographic logP falls from 2.79 to 2.34.

Going from COc1ccc(OC)c(Nc2nccc(-c3sc(C4CC4)nc3C)n2)c1 [Example 221, 4-(2-cyclopropyl-4-methyl-1,3-thiazol-5-yl)-N-(2,5-dimethoxyphenyl)pyrimidine-2-amine] to Cc1nc(C2CC2)sc1-c1ccnc(Nc2ccc(N(C)C)c(Cl)c2)n1 [Example 63, 2-chloro-N4-[4-(2-cyclopropyl-4-methyl-1,3-thiazol-5-yl)pyrimidin-2-yl]-N1,N1-dimethylbenzene-1,4-diamine], the chromatographic logP falls from 3.71 to 2.59.

same assay, conditions: * HPLC reversed-phase C18, 40° C., mobile phase 0.1% aqueous formic acid and acetonitrile, linear gradient 10% to 95% acetonitrile

With COc1ccc(Nc2nccc(-c3sc(N(C)C)nc3C(F)(F)F)n2)cn1 [Example 783, 4-[2-(dimethylamine)-4-(trifluoromethyl)-1,3-thiazol-5-yl]-N-(6-methoxypyridin-3-yl)pyrimidine-2-amine] the logP was 3.17*.
In the case of COc1cc(Nc2nccc(-c3sc(N(C)C)nc3C(F)(F)F)n2)cc(OC)c1 [Example 707, N-(3,5-dimethoxyphenyl)-4-[2-(dimethylamine)-4-(trifluoromethyl)-1,3-thiazol-5-yl]pyrimidine-2-amine], the logP was 3.85*.

same assay, conditions: HPLC, reversed-phase C 18, EEC Directive 79/831 Annex V.A8; method *: 40° C., 0.1% aqueous formic acid and acetonitrile, linear gradient 10% to 95% acetonitrile

With CN(C)c1nc(C(F)(F)F)c(-c2ccnc(Nc3ccccc3)n2)s1 [Example 292, 4-[2-(dimethylamine)-4-(trifluoromethyl)-1,3-thiazol-5-yl]-N-phenylpyrimidine-2-amine] the logP was 3.88*.
For COc1cccc(Nc2nccc(-c3sc(N(C)C)nc3C)n2)c1 [Example 293, 4-[2-(dimethylamine)-4-methyl-1,3-thiazol-5-yl]-N-(3-methoxyphenyl)pyrimidine-2-amine], the logP was 1.98*.

same assay, conditions: logP(HCOOH), HCOOH

Cc1nc2c(s1)-c1nc(Nc3cccc([N+](=O)[O-])c3)ncc1CC2 [Example 95, 2-Methyl-N-(3-nitrophenyl)-4,5-dihydro[1,3]thiazolo[4,5-h]quinazoline-8-amine] gave a chromatographic logP of 2.79.

same assay, conditions: logP, * HPLC reversed-phase C18, 40° C., mobile phase 0.1% aqueous formic acid and acetonitrile, linear gradient 10% to 95% acetonitrile

Compared with COCCNc1nc(C)c(-c2ccnc(Nc3cccc(Cl)c3)n2)s1 [Example 680, N-(3-chlorophenyl)-4-{2-[(2-methoxyethyl)amino]-4-methyl-1,3-thiazol-5-yl}pyrimidine-2-amine], COCCNc1nc(C)c(-c2ccnc(Nc3cccc([N+](=O)[O-])c3)n2)s1 [Example 781, 4-{2-[(2-methoxyethyl)amino]-4-methyl-1,3-thiazol-5-yl}-N-(3-nitrophenyl)pyrimidine-2-amine] is lower in chromatographic logP: 2.28 for the first, 1.97 for the second.

COCCNc1nc(C)c(-c2ccnc(Nc3ccc(N(C)C)c(Cl)c3)n2)s1 [Example 805, 2-chloro-N4-(4-{2-[(2-methoxyethyl)amino]-4-methyl-1,3-thiazol-5-yl}pyrimidin-2-yl)-N1,N1-dimethylbenzene-1,4-diamine] and COCCNc1nc(C)c(-c2ccnc(Nc3ccc4c(c3)OCO4)n2)s1 [Example 802, N-1,3-benzodioxol-5-yl-4-{2-[(2-methoxyethyl)amino]-4-methyl-1,3-thiazol-5-yl}pyrimidine-2-amine] are within 0.2 log units of each other in chromatographic logP: 1.57 for the first, 1.65 for the second.

First: CC(=O)c1cccc(Nc2nccc(-c3sc(C)nc3C(F)F)n2)c1 [Example 709, 1-[3-({4-[4-(difluoromethyl)-2-methyl-1,3-thiazol-5-yl]pyrimidin-2-yl}amino)phenyl]ethanone]
Second: Cc1nc(C(F)F)c(-c2ccnc(Nc3cccc(Cl)c3)n2)s1 [Example 757, N-(3-chlorophenyl)-4-[4-(difluoromethyl)-2-methyl-1,3-thiazol-5-yl]pyrimidine-2-amine]
The chromatographic logP of the first is higher: 2.64 for the first, 1.41 for the second.

Compared with CCc1nc(C)c(-c2ccnc(Nc3ccc(OC)cc3)n2)s1 [Example 789, 4-(2-ethyl-4-methyl-1,3-thiazol-5-yl)-N-(4-methoxyphenyl)pyrimidine-2-amine], CCc1nc(C)c(-c2ccnc(Nc3ccc(OCC(C)(C)C)nc3)n2)s1 [Example 721, N-[6-(2,2-dimethylpropoxy)pyridin-3-yl]-4-(2-ethyl-4-methyl-1,3-thiazol-5-yl)pyrimidine-2-amine] is higher in chromatographic logP: 2.78 for the first, 4.23 for the second.

COCCNc1nc(C)c(-c2ccnc(Nc3ccc4c(c3)OCCO4)n2)s1 [Example 803, N-(2,3-dihydro-1,4-benzodioxin-6-yl)-4-{2-[(2-methoxyethyl)amino]-4-methyl-1,3-thiazol-5-yl}pyrimidine-2-amine] and COCCNc1nc(C)c(-c2ccnc(Nc3ccc(OC)c(OC)c3)n2)s1 [Example 800, N-(3,4-dimethoxyphenyl)-4-{2-[(2-methoxyethyl)amino]-4-methyl-1,3-thiazol-5-yl}pyrimidine-2-amine] are within 0.2 log units of each other in chromatographic logP: 1.63 for the first, 1.55 for the second.

Compared with COC(=O)Nc1ccc(Nc2nccc(-c3sc(N)nc3C)n2)cc1 [Example 656, methyl-(4-{[4-(2-amino-4-methyl-1,3-thiazol-5-yl)pyrimidin-2-yl]amino}phenyl)carbamate], COc1ccc(Nc2nccc(-c3sc(C)nc3C)n2)cc1Cl [Example 416, N-(3-chloro-4-methoxyphenyl)-4-(2,4-dimethyl-1,3-thiazol-5-yl)pyrimidine-2-amine] is higher in chromatographic logP: 1.31 for the first, 2.88 for the second.

COc1cccc(Nc2nccc(-c3sc(SC)nc3C)n2)c1 [Example 449, N-(3-methoxyphenyl)-4-[4-methyl-2-(methylthio)-1,3-thiazol-5-yl]pyrimidine-2-amine] and COc1cc(Nc2nccc(-c3sc(SC)nc3C)n2)cc(OC)c1 [Example 407, N-(3,5-dimethoxyphenyl)-4-[4-methyl-2-(methylthio)-1,3-thiazol-5-yl]pyrimidine-2-amine] are within 0.2 log units of each other in chromatographic logP: 3.33 for the first, 3.39 for the second.

Compared with COc1cc(Nc2nccc(-c3sc(N4CCOCC4)nc3C)n2)cc(OC)c1OC [Example 735, 4-(4-methyl-2-morpholin-4-yl-1,3-thiazol-5-yl)-N-(3,4,5-trimethoxyphenyl)pyrimidine-2-amine], COc1cc(Nc2nccc(-c3sc(C)nc3C(F)F)n2)cc(OC)c1OC [Example 708, 4-[4-(difluoromethyl)-2-methyl-1,3-thiazol-5-yl]-N-(3,4,5-trimethoxyphenyl)pyrimidine-2-amine] is higher in chromatographic logP: 2.07 for the first, 2.61 for the second.

same assay, conditions: logP, ** HPLC reversed-phase C18, 43° C., mobile phase 0.1% aqueous phosphoric acid and acetonitrile, linear gradient 10% to 95% acetonitrile

First: CC(=O)Nc1nc(C)c(-c2ccnc(Nc3cccc(Cl)c3)n2)s1 [Example 515, N-(5-{2-[(3-chlorophenyl)amino]pyrimidin-4-yl}-4-methyl-1,3-thiazol-2-yl)acetamide]
Second: Cc1nc(C)c(-c2ccnc(Nc3ccc(CNC(=O)OC(C)(C)C)cc3)n2)s1 [Example 625, tert-butyl-(4-{[4-(2,4-dimethyl-1,3-thiazol-5-yl)pyrimidin-2-yl]amino}benzyl)carbamate]
The chromatographic logP of the first is lower: 2.49 for the first, 2.7 for the second.

same assay, conditions: logP, values marked *: HPLC on reversed-phase C 18, 40° C., mobile phase 0.1% aqueous formic acid and acetonitrile, linear gradient 10% to 95% acetonitrile

Going from Cc1nc(C)c(-c2nc(Nc3ccccc3)ncc2Cl)s1 [Example 873, 5-chloro-4-(2,4-dimethyl-1,3-thiazol-5-yl)-N-phenylpyrimidine-2-amine] to Cc1nc(C(C)(C)C)sc1-c1ccnc(Nc2ccccc2)n1 [Example 882, 4-(2-tert-butyl-4-methyl-1,3-thiazol-5-yl)-N-phenylpyrimidine-2-amine], the chromatographic logP rises from 3.26 to 4.24.

First: COc1ccc(Nc2nccc(-c3sc(C(C)C)nc3C)n2)cc1OC [Example 819, N-(3,4-dimethoxyphenyl)-4-(2-isopropyl-4-methyl-1,3-thiazol-5-yl)pyrimidine-2-amine]
Second: COCCNc1nc(C)c(-c2ccnc(Nc3ccc(C)c(C)c3)n2)s1 [Example 896, N-(3,4-dimethylphenyl)-4-{2-[(2-methoxyethyl)amino]-4-methyl-1,3-thiazol-5-yl}pyrimidine-2-amine]
The chromatographic logP of the first is higher: 2.85 for the first, 2.08 for the second.

First: CCc1nc(C)c(-c2ccnc(Nc3ccc(F)c(N4CCN(C(C)=O)CC4)c3)n2)s1 [Example 848, N-[3-(4-acetylpiperazin-1-yl)-4-fluorophenyl]-4-(2-ethyl-4-methyl-1,3-thiazol-5-yl)pyrimidine-2-amine]
Second: COCCCNc1nc(C)c(-c2ccnc(Nc3ccc(F)c(C)c3)n2)s1 [Example 857, N-(4-fluoro-3-methylphenyl)-4-{2-[(3-methoxypropyl)amino]-4-methyl-1,3-thiazol-5-yl}pyrimidine-2-amine]
The chromatographic logP of the first is higher: 2.42 for the first, 2.11 for the second.

First: COCCCNc1nc(C)c(-c2ccnc(Nc3cc(OC)c(OC)c(OC)c3)n2)s1 [Example 866, 4-{2-[(3-methoxypropyl)amino]-4-methyl-1,3-thiazol-5-yl}-N-(3,4,5-trimethoxyphenyl)pyrimidine-2-amine]
Second: COc1ccc(Nc2nccc(-c3sc(C(C)(C)C)nc3C)n2)cn1 [Example 886, 4-(2-tert-butyl-4-methyl-1,3-thiazol-5-yl)-N-(6-methoxypyridin-3-yl)pyrimidine-2-amine]
The chromatographic logP of the first is lower: 1.73 for the first, 3.42 for the second.
